In EP2488179B1, “NRF2 INHIBITORS AND USE THEREOF” (priority 2009, dated 2011):

Tests used:
Type in all cases: cell-based
HO-1 mRNA = experiment: Semi-quantitative RT-PCR of HO-1 mRNA; settings: inhibitor, then tBHQ after 2 hours; GAPDH control; FIG. 3a
Experimental: After 2 hours from the treatment of 3-[(4-biphenylyloxy)methyl]piperidine chloride, the selected Nrf2 inhibitor, RNA expression was assayed in order to measure the increase in the amount of heme oxygenase (HO)-1 mRNA by tBHQ treatment. mRNA was isolated from the cells treated with 3-[(4-biphenylyloxy)methyl]piperidine hydrochloride, using an RNA extraction kit (Qiagen, USA) and identified using a spectrometer (Amersham Biosciences, USA). cDNA was obtained from the mRNA using a reverse transcriptase (Promega, USA), and PCR was conducted using the cDNA as a template and primers having sequences SEQ ID NOS: 11 and 12 to measure the expression level of HO-1 mRNA. The PCR was performed with 25 cycles, each of which consisting of a denaturation at 94°C for 30 seconds, an annealing at 55°C for 30 seconds, and an extension at 72°C for 1 minute. The DNA obtained using the PCR was electrophoresed in a 1.5% agarose gel, stained using ethidium bromide, and observed under UV rays. […] It is believed that the 3-[(4-biphenylyloxy)methyl]piperidine hydrochloride that is selected as the Nrf2 inhibitor using the ARE-pGL3 luciferase plasmid in Example 1 acted on the ARE site to inhibit the activity of the Nrf2 transcription factor.

[1] = system: U87-MG brain cancer cells; experiment: Clonogenic assay with radiation (methylene blue staining); settings: 1, 5, and 10 µM with 2, 4, and 6 Gy radiation, 7 days
Experimental: (§1) H1299 lung cancer cells, U87-MG brain cancer cells, or HT29 colorectal cancer cells were respectively inoculated into a 6 cm plate including a RPMI 1640 supplemented with 10% FBS, 100 µg/ml of streptomycin, and 100 unit/ml of penicillin. The plate was treated with the selected 1, 5, and 10 µM 3-[(4-biphenylyloxy)methyl]piperidine hydrochloride, the Nrf2 inhibitor, exposed to 2, 4, and 6 Gy -radiation, and cultured under 5% CO2 conditions at 37°C for 7 days. The cultured cells were washed with a phosphate buffered saline (PBS) and stained with a 1% methylene blue in 100% methanol. Then, the number of alive cells that formed colonies was calculated three times.

H1299 lung cancer cells [2] = experiment: as above; settings: 1, 5, and 10 µM with 2, 4, and 6 Gy radiation, 7 days
Experimental: as §1

[3] = system: HT29 colorectal cancer cells; experiment: as above; settings: 1, 5, and 10 µM with 2, 4, and 6 Gy radiation, 7 days
Experimental: as §1

[4] = system: SKOV3 ovarian cancer cells; experiment: FACS of propidium iodide stained cells after radiation; settings: 1 µM with 5 Gy radiation, 48 hours; compared to 5Gy radiation therapy
Experimental: (§2) In order to measure whether a treatment of MB231 breast cancer cells and SKOV3 ovarian cancer cells with a combination of 3-[(4-biphenylyloxy)methyl]piperidine chloride, the selected Nrf2 inhibitor, and radiation therapy increase or synergistically increase the killing of cancer cells by apoptosis, the cancer cells were treated with 1 µM 3-[(4-biphenylyloxy)methyl]piperidine hydrochloride, exposed to 5 Gy radiation, and cultured under 5% CO2 conditions at 37°C for 48 hours. The cultured cells were collected and stained with propidium iodide, and cell cycles were analyzed using a fluorescence activated cell sorting (FACS).

[5] = system: MB231 breast cancer cells; experiment: as above; settings: 1 µM with 5 Gy radiation, 48 hours; compared to 5Gy radiation therapy
Experimental: as §2

HEK293 cells = experiment: CCK-8 viability assay (absorbance at 450 nm) on the screening cells; settings: CCK-8, absorbance at 450 nm, FIG. 2b
Experimental: In addition, in order to confirm that the inhibition of the luciferase activity is not caused by the death of a cell but by the Nrf2 inhibitor, absorbance was measured using a CCK-8 viability assay kit (Dojindo, Japan) and a spectrometer (Lab Systems, USA) at 450 nm.

[6] = system: SKOV3 ovarian cancer cells; experiment: CCK-8 viability assay, alone and combined with Doxorubicin; settings: 48 hours
Experimental: (§3) H1299 lung cancer cells, SKOV3 ovarian cancer cells, U87-MG brain cancer cells, and HT29 colorectal cancer cells were respectively inoculated into a 96-well plate including a Rosewell Park Memorial Institute medium 1640 (RPMI 1640) supplemented with 10% FBS, 100 µg/ml of streptomycin, and 100 unit/ml of penicillin. Each well was treated with 0.2, 2, 5, and 10 µM 3-[(4-biphenylyloxy)methyl]piperidine hydrochloride, and then treated with 0.15 µM Doxorubicin, an anti-cancer agent after 2 hours therefrom. The wells were cultured under 5% CO2 conditions at 37°C for 48 hours, and the killing effect of the cancer cells was assayed using a CCK-8 viability assay kit (Dojindo, Japan).

[7] = system: U87-MG brain cancer cells; experiment: as above; settings: 48 hours
Experimental: as §3

H1299 lung cancer cells [8] = experiment: as above; settings: 48 hours
Experimental: as §3

[9] = system: HT29 colorectal cancer cells; experiment: as above; settings: 48 hours
Experimental: as §3

Nrf2 protein = experiment: Western blotting of Nrf2 protein; settings: FIG. 3b
Experimental: (§4) In order to identify whether the 3-[(4-biphenylyloxy)methyl]piperidine hydrochloride, the selected Nrf2 inhibitor, acted on the ARE site to inhibit the binding of the Nrf2 transcription factor, and thereby inhibiting the expression of antioxidant enzymes, protein expression was analyzed. The increase in the amount of HO-1 protein by the tBHQ treatment was assayed after treating cells with the 3-[(4-biphenylyloxy)methyl]piperidine hydrochloride followed by treatment with tBHQ with a 2-hour gap between the treatments. Cytoplasmic fractions were obtained from the cells treated as described above using a method commonly used in the art. The fractions were separated using a 10% gradient SDS-PAGE, and then transferred to a nitrocellulose membrane (BioRad, Hercules, CA, USA). The membrane was blocked with a 5% skim milk and screened with an anti-Nrf2 antibody (Abcam, USA) and a HO-1 antibody (Oncogene Research Products, USA). The result was visualized by a reaction with a horseradish peroxidase-conjugated anti-rat IgG antibody (Santa Cruz Biotechnology, Inc.) using a thermostat and then with an ECL system (GE, USA).

Nrf2 = experiment: ARE-pGL3 luciferase reporter assay for screening Nrf2 inhibitors in transformed HEK293 cells
Experimental: Oligomers including an ARE site (SEQ ID NOS: 1 to 10, Bioneer Corp., Ltd., Korea) were synthesized and treated with Kpnl and M1 ul restriction enzymes. The oligomers were inserted into a pGL3 luciferase plasmid (Promega, USA) treated with the Kpnl and M1ul restriction enzymes using a ligase (Promega, USA) to prepare ARE-pGL3 luciferase. […] Besides the plasmid, pcDNA3.1 (Invitrogen, USA) plasmid including a Neo gene was used together as a selection plasmid to select a transformed cell using G418 (neomycin) as a selectable factor.
HEK293 cells were purchased from the American Type Culture Collection (ATCC) and cultured in a Dulbecco's modified Eagle's medium (DMEM) supplemented with 10% fetal bovine serum (FBS), 100 µg/ml of streptomycin, and 100 units/ml of penicillin under 5% CO2 conditions at 37°C. A transformation by which the ARE-pGL3 luciferase was introduced into the HEK293cell was performed using Lipofectamine 2000™ (Invitrogen, Calsbad, CA, USA). Activity of luciferase was measured using a Luciferase Assay Kit (Promega, Medison, WI, USA). […] Based on the result, ARE-pGL3 luciferase plasmid including 4(1/2)xARE-2 having a sequence of SEQ ID NO: 10 was used as a plasmid for screening an Nrf2 inhibitor.
After the transformation performed according to Example 1-(2), transformed HEK293 cells that expressed both ARE-pGL3 luciferase and pcDNA3.1 were selected using a culture medium including G418 (600µg/ml) and used as a cell line for screening the Nrf2 inhibitor. 20,000 cells were inoculated into each well of a 96-well plate and cultured for 24 hours under the conditions described above in Example 1-(2). […] Transformed cells that stably expressed the ARE-pGL3 luciferase plasmid were selected, and 8,000 candidate substances, low molecular weight single compounds were used to screen the Nrf2 inhibitor. Each candidate substance was added to each well to a final concentration of 10 µM. The wells were incubated for 18 hours, and the luciferase activity was measured using a Victor 3 Luminometer (Perkin Elmer, USA).

HO-1 protein = experiment: Western blotting of HO-1 protein; settings: FIG. 3b
Experimental: as §4

[10] = 0.2, 2, 5, and 10 µM, then 0.15 µM Doxorubicin after 2 hours, compared to Doxorubicin alone
[11] = compound alone, 0.2, 2, 5, and 10 µM
[12] = inhibitor then tBHQ with a 2-hour gap, cytoplasmic fractions, concentration-dependent

Compound: Cl.c1ccc(-c2ccc(OCC3CCCNC3)cc2)cc1 (stereo not shown) [3-[(4-biphenylyloxy)methyl]piperidine hydrochloride]
- expression of HO-1 mRNA (HO-1 mRNA): inhibited in a dose-dependent manner
- sensitivity of cells to radiation [1]: increased or synergistically increased the sensitivity of cells to radiation
- sensitivity of cells to radiation (H1299 lung cancer cells [2]): increased or synergistically increased the sensitivity of cells to radiation
- sensitivity of cells to radiation [3]: increased or synergistically increased the sensitivity of cells to radiation
- killing effect of the combination with radiation [4]: twice
- killing effect of the combination with radiation [5]: 4.3 times
- cell toxicity (HEK293 cells): does not have cell toxicity
- killing effect of a combination with Doxorubicin [6, 10]: significantly increased in a concentration-dependent manner
- effect on the viability [6, 11]: negligible
- killing effect of a combination with Doxorubicin [7, 10]: significantly increased in a concentration-dependent manner
- effect on the viability [7, 11]: negligible
- killing effect of a combination with Doxorubicin (H1299 lung cancer cells [8]; [10]): significantly increased in a concentration-dependent manner
- effect on the viability (H1299 lung cancer cells [8]; [11]): negligible
- killing effect of a combination with Doxorubicin [9, 10]: significantly increased in a concentration-dependent manner
- effect on the viability [9, 11]: negligible
- amount of Nrf2 protein (Nrf2 protein; [12]): reduced
- activity of the luciferase (Nrf2; concentration dependence, FIG. 2a): inhibited the activity of the luciferase in a concentration-dependent manner
- activity of the luciferase (Nrf2; screening, final concentration of 10 µM, incubated for 18 hours): inhibits the activity of the luciferase
- amount of HO-1 protein (HO-1 protein; [12]): reduced

Compound: CC(C)(C)c1cc(O)ccc1O [tBHQ, tertiary butylhydroquinone, reference compound]
- amount of Nrf2 protein (Nrf2 protein; treatment with tBHQ): increased
- activity of the luciferase (Nrf2; tBHQ added to the culture, activates the ARE): increased twice
- amount of HO-1 protein (HO-1 protein; treatment with tBHQ): increased
